According to the supplement of paper PMC13380429:

Assays:
Conditions in all cases: 72 h
Calu-3 [1] = assay: drug sensitivity score (DSS) for viability; higher = more toxic; extreme values may be limits of the assay
Caco-2 [2] = assay: as above
HepG2 [3] = assay: as above
U2OS [4] = assay: as above
Vero E6 [5] = assay: as above
Calu-3 [6] = assay: cell viability relative to DMSO; higher = less toxic
Caco-2 [7] = assay: as above
HepG2 [8] = assay: as above
U2OS [9] = assay: as above
Vero E6 [10] = assay: as above
Calu-3 [11] = assay: relative viability EC50 (midpoint between 100% and the lowest measured viability); higher = less toxic
Caco-2 [12] = assay: as above
HepG2 [13] = assay: as above
U2OS [14] = assay: as above
Vero E6 [15] = assay: as above

| Structure (SMILES) | drug sensitivity score (Calu-3 [1]) | drug sensitivity score (Caco-2 [2]) | drug sensitivity score (HepG2 [3]) | drug sensitivity score (U2OS [4]) | drug sensitivity score (Vero E6 [5]) | cell viability (Calu-3 [6]; 1 nM) | cell viability (Calu-3 [6]; 10 nM) | cell viability (Calu-3 [6]; 100 nM) | cell viability (Calu-3 [6]; 1000 nM) | cell viability (Calu-3 [6]; 10000 nM) | cell viability (Caco-2 [7]; 1 nM) | cell viability (Caco-2 [7]; 10 nM) | cell viability (Caco-2 [7]; 100 nM) | cell viability (Caco-2 [7]; 1000 nM) | cell viability (Caco-2 [7]; 10000 nM) | cell viability (HepG2 [8]; 1 nM) | cell viability (HepG2 [8]; 10 nM) | cell viability (HepG2 [8]; 100 nM) | cell viability (HepG2 [8]; 1000 nM) | cell viability (HepG2 [8]; 10000 nM) | cell viability (U2OS [9]; 1 nM) | cell viability (U2OS [9]; 10 nM) | cell viability (U2OS [9]; 100 nM) | cell viability (U2OS [9]; 1000 nM) | cell viability (U2OS [9]; 10000 nM) | cell viability (Vero E6 [10]; 1 nM) | cell viability (Vero E6 [10]; 10 nM) | cell viability (Vero E6 [10]; 100 nM) | cell viability (Vero E6 [10]; 1000 nM) | cell viability (Vero E6 [10]; 10000 nM) | relative viability EC50 (Calu-3 [11]) | relative viability EC50 (Caco-2 [12]) | relative viability EC50 (HepG2 [13]) | relative viability EC50 (U2OS [14]) | relative viability EC50 (Vero E6 [15]) |
| --- | --- | --- | --- | --- | --- | --- | --- | --- | --- | --- | --- | --- | --- | --- | --- | --- | --- | --- | --- | --- | --- | --- | --- | --- | --- | --- | --- | --- | --- | --- | --- | --- | --- | --- | --- |
| Nc1nc(-c2ccc(Cl)c(Cl)c2)c(-c2ccncc2)s1 [CGH2466] | 0 | 0 | 0 | 0 | 0 | 109% | 100% | 107% | 95.7% | 107% | 91.8% | 86.1% | 102% | 99.7% | 95.9% | 96.5% | 104% | 117% | 106% | 112% | 96.5% | 99.9% | 96.3% | 100% | 90.1% | 87.1% | 95.3% | 100% | 93.9% | 93.9% | > 10 µM | > 10 µM | > 10 µM | > 10 µM | > 10 µM |
| CN1CCN(c2ccc(/C=C(\C#N)c3ccccc3Br)cc2)CC1 [DG-172] | 0 | 0.2 | 0.3 | 0 | 0 | 114% | 102% | 104% | 100% | 90.6% | 102% | 99.5% | 100% | 95.5% | 88.5% | 101% | 99.9% | 104% | 105% | 82.1% | 105% | 101% | 106% | 100% | 94.8% | 106% | 108% | 104% | 105% | 91.3% | > 10 µM | > 10 µM | > 10 µM | > 10 µM | > 10 µM |
| Cc1nc2c(c(=O)[nH]1)CSCC2 [DR-2313] | 0 | 0 | 0 | 0 | 0 | 105% | 92.2% | 95% | 95.5% | 91.9% | 92.6% | 88.9% | 90.1% | 95.7% | 97.4% | 99.8% | 101% | 98.3% | 108% | 94.6% | 102% | 99.1% | 99.9% | 97.1% | 99.1% | 98% | 100% | 97.8% | 94.6% | 108% | > 10 µM | > 10 µM | > 10 µM | > 10 µM | > 10 µM |
| CC(C)C[C@H](NC(=O)OCc1ccccc1)C(=O)N[C@@H](C[C@@H]1CCNC1=O)C(O)S(=O)(=O)O (stereo not given in full) [GC376 sodium] | 0 | 0 | 0 | 0 | 0 | 105% | 92.2% | 99.9% | 104% | 96.1% | 97.2% | 92.6% | 96.7% | 92.7% | 108% | 101% | 99.8% | 97% | 102% | 95.4% | 90.4% | 101% | 97.3% | 100% | 108% | 90.3% | 104% | 93.2% | 102% | 108% | > 10 µM | > 10 µM | > 10 µM | > 10 µM | > 10 µM |
| O=C(O)c1ccc(N2N=C(Cc3ccccc3)/C(=C\c3ccc(-c4ccccc4F)o3)C2=O)cc1 [GS-143] | 0 | 0.2 | 0 | 0 | 0.3 | 102% | 99.1% | 101% | 105% | 99.8% | 103% | 104% | 99.2% | 93.8% | 87.5% | 107% | 110% | 95.4% | 95.8% | 105% | 105% | 106% | 101% | 104% | 98.8% | 106% | 99% | 99.9% | 101% | 82.7% | > 10 µM | > 10 µM | > 10 µM | > 10 µM | > 10 µM |
| Cc1ccc(C(=O)Nc2ccc(CN3CCN(C)CC3)c(C(F)(F)F)c2)cc1C#Cc1cnc2[nH]ncc2c1 [GZD824] | 13.9 | 10.1 | 17.2 | 15.4 | 16.6 | 96.7% | 86.8% | 76.8% | 45.9% | 3.7% | 102% | 98.6% | 86.7% | 59% | 2.4% | 106% | 98.8% | 71.2% | 27.1% | 0.4% | 99.5% | 104% | 77.5% | 32.5% | 0.3% | 103% | 102% | 86.5% | 19.1% | 0.2% | 0.497 µM | 1.17 µM | 0.297 µM | 0.42 µM | 0.365 µM |
| CCCCC#Cc1nc(NC)c2ncn([C@@H]3O[C@H](CO)[C@@H](O)[C@H]3O)c2n1 [HEMADO] | 0 | 0 | 0 | 0 | 0 | 102% | 108% | 84.6% | 102% | 91.1% | 103% | 89% | 102% | 104% | 102% | 111% | 103% | 99.7% | 103% | 104% | 102% | 102% | 96.1% | 103% | 101% | 110% | 101% | 105% | 105% | 98.5% | > 10 µM | > 10 µM | > 10 µM | > 10 µM | > 10 µM |
| O=C(CSc1nc2c(c(=O)n1-c1ccccc1)SCC2)Nc1ccc(-c2ccccc2)cn1 [IWP-L6] | 0 | 0 | 0 | 0 | 0 | 94.4% | 96.6% | 91.7% | 98.8% | 87.5% | 89.2% | 102% | 96.2% | 92.6% | 90.1% | 100% | 92.1% | 105% | 106% | 99.3% | 95.4% | 97.6% | 93.4% | 97.1% | 94.9% | 97% | 97.7% | 95.3% | 95.1% | 96.1% | > 10 µM | > 10 µM | > 10 µM | > 10 µM | > 10 µM |
| COc1cc2c(cc1OC)[C@H](C)NCC2 [Isoquinoline,-6,7-dimethoxy-1-methyl-1,2,3,4-tetrahydro,] | 0 | 0 | 0 | 0 | 0 | 109% | 104% | 101% | 109% | 96.1% | 92.5% | 89.1% | 99.4% | 92.3% | 112% | 100% | 95.6% | 99.9% | 97.4% | 101% | 102% | 103% | 104% | 90.4% | 102% | 97.3% | 96.5% | 96.8% | 96.5% | 106% | > 10 µM | > 10 µM | > 10 µM | > 10 µM | > 10 µM |
| Cc1cc(-c2ncc(CC(=O)Nc3ccc(-c4cnccn4)cn3)cc2C)ccn1 [LGK-974] | 0.8 | 1.8 | 3.7 | 0 | 0 | 93.6% | 97% | 84.2% | 90.3% | 87.8% | 97.1% | 96.6% | 89.2% | 91.2% | 75.2% | 95% | 99.7% | 97.9% | 96.9% | 39.6% | 97.4% | 96.8% | 92.7% | 93.4% | 91.4% | 93% | 96.6% | 90.7% | 93.4% | 107% | > 10 µM | > 10 µM | 2.77 µM | > 10 µM | > 10 µM |
| Cc1c(C(=O)NCc2cccnc2)nn(-c2ccc(Cl)cc2Cl)c1-c1ccc(Cl)cc1 [MJ-15] | 0 | 0 | 0 | 0 | 0 | 90.5% | 86.7% | 103% | 90.4% | 97% | 88% | 87.7% | 92.2% | 84.3% | 79.1% | 91.8% | 111% | 96.2% | 101% | 98.8% | 99.2% | 96.5% | 102% | 88.8% | 95.3% | 92.5% | 96.4% | 94.8% | 90.2% | 99.2% | > 10 µM | > 10 µM | > 10 µM | > 10 µM | > 10 µM |
| COc1ccc(C2CC(c3ccccc3)=NN2c2ccc(S(N)(=O)=O)cc2)cc1 (stereo not given) [ML141] | 0 | 0.8 | 0 | 0 | 0 | 85.8% | 105% | 105% | 110% | 104% | 94.9% | 95.2% | 97.6% | 97.8% | 80.7% | 106% | 102% | 102% | 104% | 94.8% | 102% | 110% | 93.3% | 108% | 94% | 112% | 103% | 109% | 95.9% | 102% | > 10 µM | > 10 µM | > 10 µM | > 10 µM | > 10 µM |
| COCc1nc2c([nH]1)c(=O)n(C)c(=O)n2CC(C)C [MMPX] | 0 | 0 | 0 | 0 | 0 | 102% | 100% | 98.1% | 103% | 96% | 91.8% | 91.8% | 96.9% | 95.7% | 96.3% | 98% | 94% | 101% | 94.9% | 100% | 95.8% | 100% | 96.4% | 104% | 98.2% | 97.8% | 94.2% | 99.2% | 97.5% | 99.2% | > 10 µM | > 10 µM | > 10 µM | > 10 µM | > 10 µM |
| CC[N+](C)(CC)CC(=O)Nc1c(C)cccc1C [N-methyllidocaine-iodide] | 0 | 0 | 0 | 0 | 0 | 98.2% | 102% | 102% | 96.7% | 102% | 88% | 101% | 103% | 94.8% | 102% | 106% | 95.4% | 93.7% | 111% | 107% | 95.1% | 101% | 96.7% | 97.4% | 100% | 98.7% | 96.2% | 99.2% | 102% | 101% | > 10 µM | > 10 µM | > 10 µM | > 10 µM | > 10 µM |
